This is an account of results in EP4792822A1, “USE OF PEPTIDE AMIDE COMPOUND IN PREPARATION OF DRUG FOR […] AND VOMITING” (Haisco Pharmaceutical Group Co., Ltd., priority 2023, dated 2025).

The test system of this data set is subjects undergoing elective abdominal surgery under general anaesthesia. The data set is described as follows: Example 2: placebo/active-controlled clinical study of compound 1 injection for postoperative analgesia (flurbiprofen axetil rescue; nausea and vomiting recorded). The format is in vivo, patients. The procedure: This study was a multicentre, randomised, double-blind, placebo/active-controlled study. About 387 subjects undergoing elective abdominal surgery under general anaesthesia were planned to be enrolled and randomised to three groups: the compound 1 group (129 subjects), the tramadol group (129 subjects), and the placebo group (129 subjects).
After the end of surgery, MOAA/S scores were assessed every 5 ± 1 min. Once the subjects regained consciousness (defined as the first MOAA/S score of 5), the first resting pain intensity assessment was initiated within 5 min [using the numeric rating scale (NRS), where 0-10 represent varying degrees of pain: 0 represents no pain, higher numbers represent more severe pain, and 10 represents the most severe pain]. It was recommended that the interval between two NRS assessments not exceed 30 min. Within 4 h after the end of surgery, subjects who met all inclusion criteria and none of the exclusion criteria were randomised at a 1 : 1 : 1 ratio into the compound 1 group, the tramadol group or the placebo group. It was recommended that randomisation be performed within 10 min after the first NRS score ≥ 4.
After successful randomisation, to prevent the subjects from enduring pain for a long time, the first dose of compound 1 injection (1 µg/kg/dose), tramadol hydrochloride injection (50 mg/dose), or placebo injection was administered to the subjects by the investigator as soon as possible (recommended within 15 min after successful randomisation). The end time of the first postoperative administration of the study drug was recorded as 0 min. At 8 h (± 15 min) and 16 h (± 15 min) after the end of the first administration, a single corresponding dose of the compound 1 injection, tramadol hydrochloride injection, or placebo injection was administered to the subjects, for a total of three administrations.
Resting NRS score assessments were performed in subjects at 15 min ± 5 min, 30 min ± 5 min, 1 h ± 5 min, 2 h ± 15 min, 4 h ± 15 min, 8 h ± 30 min (within 30 min before the second administration of the study drug), 12 h ± 30 min, 16 h ± 30 min (within 30 min before the third administration of the study drug), 20 h ± 30 min, and 24 h ± 1 h after the end of the first administration of the study drug. The NRS score for resting pain refers to the NRS score assessed when the subject is at rest (e.g., sitting or lying still). If the subject was unconscious at a scheduled NRS assessment time point, the score was recorded as follows: if the previous NRS score was ≥ 2, the current NRS score was recorded as 2; if the previous NRS score was < 2, the current NRS score was recorded as the previous score. Meanwhile, it was documented that the subject was unconscious at the time of assessment.
A flurbiprofen axetil injection was administered via intravenous injection for rescue treatment if the subject complained of pain at any time point after the first administration of the study drug, and the resting pain NRS score was ≥ 4. It was recommended that the time from the subject's NRS assessment to actual administration of flurbiprofen axetil injection be ≤ 30 min; an initial intravenous dose of 50 mg be administered, followed by additional doses as needed. It was also recommended that the interval between two rescue treatments be ≥ 3 h and that the interval between rescue medication and study drug administration be ≥ 1 h. However, rescue treatment could be given at any time for severe pain. […] Rescue details (including resting NRS score before rescue, the time of each use of rescue medication, the dosage of rescue medication, etc.) were recorded truthfully.
Prophylactic antiemetic treatment was prohibited during the study. After the first postoperative administration, the investigator administered antiemetic agents based on the occurrence of nausea and vomiting in the subject, and the dosage of the antiemetic agents was recorded. […]

The mark [1] stands for this setting: Example 2, safety analysis set, N = 129, 1 µg/kg/dose, three administrations.
[2] abbreviates: Example 2, listed as compound 1.
Setting [3] is: compared with tramadol and placebo.
[4] abbreviates: within 0-12 h and 0-24 h after the first postoperative administration, compared with tramadol and placebo.
The mark [5] stands for this setting: within 0-24 h, compared with tramadol and placebo.

As for `CC(=O)N1CC2(CCN(C(=O)[C@@H](CCCCN)NC(=O)[C@@H](CC(C)C)NC(=O)[C@@H](Cc3ccccc3)NC(=O)[C@H](N)Cc3ccccc3)CC2)C1` [Compound 1, (2R)-N-[(1R)-1-(2-acetyl-2,7-diazaspiro[3.5]nonane-7-carbonyl)-5-amino-pentyl]-2-[[(2R)-2-[[(2R)-2-amino-3-phenyl-propionyl]amino]-3-phenylpropionyl]amino]-4-methyl-pentanamide], for the setting “Example 2”, the “Change in incidence of nausea relative to placebo” value is listed as 50% reduction; the “Change in incidence of vomiting relative to placebo” value was 47.9% reduction; the “overall safety and tolerability” value is “good overall safety and tolerability”; the serious adverse events entry is on record as “No serious adverse events occurred”. Under setting [1], the “Nausea (incidence)” value is reported as 10.1% and the “Vomiting (incidence)” value is 8.5%. Also, under setting [2], the “Change in incidence of nausea relative to placebo” value is 50 % reduction and the “Change in incidence of vomiting relative to placebo” value is 47.9 % reduction. Where the note is “compared with placebo”, the “SPID0-24 h after the first postoperative administration” value was “superior to that in the placebo group”. In addition, under setting [3], the “PID at each time point” value was “comparable to those in the tramadol group and significantly lower than those in the placebo group”; the “SPID0-12 h after the first postoperative administration” value was “comparable to those in the tramadol group and significantly lower than those in the placebo group”; the duration of analgesia result is “comparable to those in the tramadol group and significantly longer than those in the placebo group”; the “incidence of decreased thyroid-stimulating hormone” value is “slightly higher than that in the tramadol group and the placebo group”. In addition, under setting [3], the “incidences of nausea and vomiting” value is “lower than those in the tramadol group and the placebo group”; the “subject and investigator satisfaction scores for postoperative analgesia” value is “generally comparable to those in the tramadol group and significantly higher than those in the placebo group”; the “time to the first use of rescue analgesic agents” value was “comparable to those in the tramadol group and significantly longer than those in the placebo group”. Further, where the note is “compared with tramadol injection (50 mg/dose)”, the “SPID0-24 h after the first postoperative administration” value is given as “non-inferior to that in the tramadol injection group”. Moreover, the “effect on PONV in patients after abdominal surgery” value (summary of both Phase III studies (Example 2)) is given as “preventive and/or alleviating effect on PONV”. In addition, under setting [4], the “mean cumulative dosage of rescue analgesic agents” value is “comparable to those in the tramadol group and significantly lower than those in the placebo group”; the “proportion of subjects with NRS scores ≤ 3” value was “generally comparable to those in the tramadol group and significantly higher than those in the placebo group”. In addition, under setting [5], the “cumulative dosage of other antiemetic agents” value is “higher than those in the tramadol group and the placebo group”; the “proportion of subjects using other antiemetic agents” value was “slightly lower than those in the tramadol group and the placebo group”. Also, for the setting “within 0-24 h after the first administration, compared with tramadol and placebo”, the “proportion of subjects using tropisetron and the cumulative dosage” value is “significantly lower than those in the tramadol group and the placebo group”. For the same molecule, the “proportion of subjects using rescue analgesic agents” value (within 0-24 h after the first postoperative administration, compared with tramadol and placebo) was “comparable to those in the tramadol group and significantly lower than those in the placebo group”.
